Measurements published in a melting point compilation (Tetko et al.; mined from patent text by program, amines drawn as free bases though some values may be those of a salt).

melting point [°C]	Structure (SMILES)
131 to 133	O=c1[nH]c(=O)n(CCCCN2CCC(OC(c3ccccc3)c3ccccc3)CC2)c2ccccc12
85 to 87	CCOc1cc(CF)nc(N)n1
218 to 219	CC(C)n1nc(-c2c(-c3ccccc3)nn3c(N)cccc23)ccc1=O
94 to 97	Cn1cc2c(cc1=O)CCCC2=O
205 to 208	CC(C)(C)N1CC(=O)Nc2ccc(Br)cc2C1=O
187 to 188	O=S(=O)(c1cc(F)ccc1F)N1CCNc2ncc(I)cc21
190 to 191	Cc1c(S(=O)(=O)Nc2ccc(-c3nc(CCl)cs3)cc2S(C)(=O)=O)sc2ccc(F)cc12
173 to 175	COc1ccc(C2=CC(=Nc3c(C)cc(C)cc3C)N(C)CN2C(C)=O)cc1OC
275 to 279	Cc1ccc(Cl)c(NS(=O)(=O)C2(NC=O)N=CN=N2)c1Cl (stereo not given)
110 to 112	Cc1ccc(S(=O)(=O)N(CCO)CCN(CCN(CCO)S(=O)(=O)c2ccc(C)cc2)S(=O)(=O)c2ccc(C)cc2)cc1
55 to 59	CC(=O)SCCc1cccc(N)n1
145 to 146	CNC(=O)NN(CC(=O)OC)c1cccc(OC)c1
238 to 240	Cc1nc(-n2ccc(O)cc2=O)sc1C(=O)NCc1cccnc1
163 to 165	O=C(O)C1CCCc2[nH]c3ccccc3c21 (stereo not given)
76 to 78	CCOC(=O)C(Cc1ccc(OCCN2COc3ccccc3C2=O)cc1)OCC (stereo not given)
84.5 to 86	CCCCCC(=O)CCC1C(=O)NC(=O)N1CCCCCCC(=O)O (stereo not given)
64 to 66	C=C(C)C(=O)OCc1c(Br)c(Br)c(Br)c(Br)c1COC(=O)C(=C)C
206 to 207	C[C@@H]1CN(CC(=O)Nc2nccc3ccccc23)C[C@H](C)N1c1ncnc2sccc12
176 to 179	COc1c(NC(=O)Nc2ccc(-c3ccc(CN4CCOCC4)nc3)c3ccccc23)cc(C(C)(C)C)cc1Nc1c(N(C)C)c(=O)c1=O
104 to 106	OC1CC=C(c2ccc(C(F)(F)F)cc2)CC1 (stereo not given)

melting point [°C]	Structure (SMILES)
110	Cc1c(C)c2c(c(C)c1N)CC(C)(C)O2
139 to 140	CCOc1ccc(C(=O)CCC(=O)Nc2sc(-c3ccccc3)nc2-c2ccccc2)cc1OCC
114	c1ccc(OCCCN2CCC(CNc3nc4ccccc4s3)CC2)cc1
64 to 65	COc1ccc(SCCNC(=O)N2CCCC2=O)cc1
188 to 189	O=C1c2ccccc2-c2ccc(-c3nc(CCl)co3)cc21
85 to 86	c1ccc(COC[C@H]2OC(Sc3ccccc3)[C@H](OCc3ccccc3)[C@@H](OCc3ccccc3)[C@@H]2OCc2ccccc2)cc1 (stereo not given in full)
100 to 102	CC(C)Oc1ccc2c(c1)OCC1c3ccccc3OC21 (stereo not given)
270	C[C@H](N)c1nc2c(C(F)(F)F)cccc2c(O)c1C(=O)Nc1nccs1
> 310	Cc1nc(N)nc(N)c1N1CCN(c2ccc(C(=O)NCC(=O)O)cc2)CC1
53.5 to 55	C#CC1(c2ccc(OC)c(OC3CCCC3)c2)CCC2(CC1)OCCO2
81 to 82.5	CCN(CC)C(=S)SC(C[N+](=O)[O-])c1ccccc1 (stereo not given)
57.8 to 58.9	CCCCCS(=O)(=O)NC(=O)CCc1ccc(OCCOC)cc1OCC1CCCO1 (stereo not given)
142 to 143	O=C(COc1ccccc1)NC1C(=O)N2C(C(=O)OCc3ccccc3)N=CSC12 (stereo not given)
113 to 114	CCc1nc(Cl)c(Oc2cc(OC)ccc2Cl)c(Cl)n1
97 to 101	O=[N+]([O-])c1ccc(-c2cccs2)c(-c2cccs2)c1
218 to 220	CCc1cc(N2CCCCC2)c(S(C)(=O)=O)cc1C(=O)N=C(N)N
267 to 268	CCOc1c(C#N)sc(NC(C)=O)c1C#N
216 to 218	O=C1N(Cc2cnccn2)c2ccccc2C12COc1cc3c(cc12)OCCO3 (stereo not given)
165 to 167	Cc1ccc(C2CCN(c3c(C)c(C)c4c(c3C)[C@@H](c3ccc(C)cc3)C(C)(C)O4)CC2)cc1
166 to 173	O=C(O)c1c([N+](=O)[O-])ccc2c1OCO2
